Results: patent publication US20150190416A1, “FILAGGRIN PRODUCTION PROMOTER, THERAPEUTIC AGENT FOR DISEASES ASSOCIATED WITH REDUCTION IN PRODUCTION OF FILAGGRIN, AND METHOD FOR SCREENING FOR SAID THERAPEUTIC AGENT” (KYOTO UNIVERSITY, priority 2012, published 2015)

How the values were obtained:
Type in all cases: cell-based, human
GPR142 [1] = test: G protein-coupled receptor (GPCR) array in NHEK cells, GPR142 (Example 3); conditions: Compound 1 1 μM, 3 days
Protocol: (§1) In this example, the expression-increasing effect of Compound 1 on a GPCR in NHEK cells was confirmed by using a GPCR array.
(§2) 1) 5×10^4 cells/well of NHEK cells (Invitrogen) were plated on a 24-well plate, and then 500 μl of a culture medium containing a medium for proliferating normal human epidermal keratinocytes (HuMedia-KG2, KURABO INDUSTRIES LTD.) supplemented with hEGF (0.1 ng/ml), insulin (10 μg/ml), hydrocortisone (0.5 μg/ml), gentamycin (50 μg/ml), amphotericin B (50 ng/ml), and bovine brain pituitary extract (BPE) (0.4%, v/v) were added to the plate, and the cells were cultured under the conditions of 37° C. and 5% CO2 for from 3 to 4 days until the 80 to 85% confluent state was achieved.
(§3) 2) Next, a DMSO solution of Compound 1 was added to the medium at 1 μM per well, and culture was further conducted for 3 days without changing the medium. In addition, regarding the system to which only CaCl2 (1.5 mM in terms of Ca) as Ca was added and the system to which both Compound 1 and CaCl2 (1.5 mM in terms of Ca) as Ca were added, the culture was conducted in a similar manner for 3 days. As a control example, a solvent only (vehicle) was added.
3) An extraction reagent (TRIzol™, Invitrogen) was used, and according to the manufacturer's protocol, total RNA was extracted from each of cells treated in the step 2). A reverse transcriptase reagent (Prime Script™, Takara) was used, and according to the manufacturer's protocol, cDNA was prepared from the total RNA. Next, a TaqMan™ human GPCR array (AB 4365295, Applied Biosystems) was used, and the analysis was conducted by an ABI PRISM™ 7900HT gene analyzer (Applied Biosystems). The result of measurement was shown as the comparison of the cycle number (ΔCt value) to 18S ribosomal RNA as a control (comparative Ct method).

GPR142 [2] = test: FLG mRNA and GPR142 mRNA in GPR142-overexpressing NHEK cells (Example 7); conditions: 10 nM, 1 day
Protocol: In this example, the FLG mRNA expression-inducing effect of Compound 1 in GPR142-overexpressing NHEK cells was confirmed.
1) 5×10^4 cells/well of NHEK cells (Invitrogen) were plated on a 24-well plate. Then, a culture medium containing a medium for proliferating normal human epidermal keratinocytes (HuMedia-KG2, KURABO INDUSTRIES LTD.) supplemented with hEGF (0.1 ng/ml), insulin (10 μg/ml), hydrocortisone (0.5 μg/ml), gentamycin (50 μg/ml), amphotericin B (50 ng/ml), and bovine brain pituitary extract (BPE) (0.4%, v/v) was added to the plate, and the cells were cultured under the conditions of 37° C. and 5% CO2.
2) A GPR142pCXN mammalian expression vector was prepared by incorporating a human GPR142 gene coding region containing the base sequence set forth in SEQ ID NO: 2 into the EcoRI restriction site of the cloning site in a mammalian expression vector pCXN (Gene 108: 193-199 (1991)). […]
5) An extraction reagent (TRIzol™, Invitrogen) was used, and according to the manufacturer's protocol, total RNA was extracted from each of cells treated with the medicament. […] Real-time PCR was conducted by using the same primers as those for GPR142, FLG, and GAPDH used in Example 4 and SYBR™ PremixEx Taq (Takara) with a CFX96 real-time PCR instrument according to the manufacturer's protocol, and the amounts of GPR142 mRNA and FLG mRNA were measured. […]

GPR142 mRNA = GPR142 mRNA expression in NHEK cells, real-time PCR (Example 4); conditions: Compound 1 1 μM, Ca 1.2 mM, 3 days, compared to the control
Protocol: (§4) In this example, the expression-inducing effects of Compound 1 on GPR142 mRNA and GPR22 mRNA in NHEK cells were confirmed.
(§5) 1) 5×10^4 cells/well of NHEK cells (Invitrogen) were plated on a 24-well plate. Then, 500 μl of a culture medium containing a medium for proliferating normal human epidermal keratinocytes (HuMedia-KG2, KURABO INDUSTRIES LTD.) supplemented with hEGF (0.1 ng/ml), insulin (10 μg/ml), hydrocortisone (0.5 μg/ml), gentamycin (50 μg/ml), amphotericin B (50 ng/ml), and bovine brain pituitary extract (BPE) (0.4%, v/v) were added to the plate, and the cells were cultured under the conditions of 37° C. and 5% CO2.
(§6) 2) After culture under the conditions of the step 1) for 1 day, the medium was exchanged for the culture medium of the step 1) to which a DMSO solution of Compound 1 was added at 1 μM per well every day and the culture was conducted for 3 days. […]
(§7) 3) An extraction reagent (TRIzol™, Invitrogen) was used, and according to the manufacturer's protocol, total RNA was extracted from each of cells treated with the medicament. […] Next, real-time PCR was conducted by using the following primers and SYBR™ Premix Ex Taq (Takara) with a CFX96 real-time PCR instrument according to the manufacturer's protocol, and the amounts of GPR142mRNA and GPR22mRNA expression were measured. […]

GPR22 mRNA = GPR22 mRNA expression in NHEK cells, real-time PCR (Example 4); conditions: Compound 1 1 μM, 3 days
Protocol: as §4, §5, §6, §7

GPR22 = test: G protein-coupled receptor (GPCR) array in NHEK cells, GPR22 (Example 3); conditions: Compound 1 1 μM, 3 days
Protocol: as §1, §2, §3
3) An extraction reagent (TRIzol™, Invitrogen) was used, and according to the manufacturer's protocol, total RNA was extracted from each of cells treated in the step 2). […]

[3] = CaCl2 1.5 mM in terms of Ca, control 29.2

Compound: CCc1ccc(OCc2ccccc2C(=O)Nc2ccc3nc(C)cc(N)c3c2)cc1.Cl [Compound 1, N-(4-Amino-2-methyl-6-quinolyl)-2-[(4-ethylphenoxy)methyl]benzamide hydrochloride]
- GPR142 mRNA expression (GPCR array), in words (GPR142 [1]; Ca 1.5 mM): expression was induced
- GPR142: cycle number (ΔCt value) to 18S ribosomal RNA (GPR142 [1]; [3]): −4.9
- FLG mRNA expression (GAPDH ratio) (GPR142 [2]; GPR142-overexpressing NHEK cells): increased FLG mRNA expression
- expression amount of GPR142 mRNA, increase as compared to the control (GPR142 [2]; NHEK cells): about 2.2 times
- GPR142 mRNA expression (GAPDH ratio) (GPR142 mRNA): GPR142 mRNA expression was induced
- GPR22 mRNA expression (GAPDH ratio) (GPR22 mRNA): induced GPR22 mRNA expression
- GPR22 mRNA expression (GPCR array), in words (GPR22; Ca 1.5 mM): expression was induced
- GPR22: cycle number (ΔCt value) to 18S ribosomal RNA (GPR22; [3]): 6.7
